# Measured values as given in patent US9308268B2, “Solubilized benzoyl peroxyde acne” (TRANSDERMAL CORP, priority 2005, dated 2016).
# Key:
# [1] = Solubility of benzoyl peroxide; format: physicochemical; conditions: by weight of the solubilized benzoyl peroxide topical formulation
# Procedure: Benzoyl peroxide is a crystalline solid with a melting point of 103° C. to 106° C., and is insoluble in water.
# Benzoyl peroxide is soluble in organic solvents, but most organic solvents are toxic and therefore not suitable for pharmaceutical/cosmetic use. Polar organic solvents such as acetone and ethanol are less toxic, but the flammability of these solvents as well as the ability of these solvents to irritate and strip the skin of its protective mantle limit their use in pharmaceutical or cosmetic compositions.
# In contrast to prior art formulations of benzoyl peroxide, the benzoyl peroxide will actively go into solution at levels as high as 10% by weigh of the solubilized benzyl peroxide topical formulation. Furthermore, the solubilized benzoyl peroxide topical formulation is translucent and has increased efficacy.
# [2] = cited from earlier work
smiles,measurement,setting,value
O=C(OOC(=O)c1ccccc1)c1ccccc1 [Benzoyl peroxide],level at which benzoyl peroxide goes into solution,[1],≤ 10%
same,solubility in organic solvents,[2]; organic solvents,soluble
same,solubility in water,[2]; water,insoluble
